Data published in patent US20060280787A1, “Pharmaceutical formulation of the tubulin inhibitor indibulin for oral administration with improved pharmacokinetic properties, and process for the manufacture thereof” (priority 2005, published 2006).

Legend:
[1] = Solubility of Indibulin in solvents; format: physicochemical
From the text: (§1) Indibulin is obtained by chemical synthesis as a white crystalline powder. Its solubility in hydrophilic solvents is poor. […] Due to these properties, the bioavailability of pure Indibulin is very low, as is Indibulin's bioavailability in common pharmaceutical dosage forms, e.g., powder, granula, tablets or capsules.
However, these organic solvents cannot be used for application in humans due to their toxicity.

[2] = Bioavailability of pure Indibulin; format: in vivo
From the text: as §1

microtubules = test: Polymerization of microtubules in a cell-free system; format: biochemical
From the text: (§2) Indibulin is a synthetic small molecule tubulin inhibitor with significant antitumor activity in vitro and in vivo. […] Furthermore, the molecule selectively blocks cell cycle progression at metaphase.

[3] = tested on: microtubules in tumor cells; test: Polymerization of microtubules in tumor cells; format: cell-based
From the text: as §2

[4] = Neurological symptoms in animal experiments; format: in vivo, animals
From the text: (§3) In vitro, Indibulin exerts significant antitumor activity against a variety of malignancies (e.g., prostate, brain, breast, pancreas, and colon). […] Based on its mechanism of action, it is expected to target all types of solid tumors. […] Another advantage for further development is its easy synthesis, in contrast to other tubulin-inhibitory compounds.

[5] = Tolerability in preclinical experiments in rodents; format: in vivo; settings: highly effective doses
From the text: as §3

O=C(Nc1ccncc1)C(=O)c1cn(Cc2ccc(Cl)cc2)c2ccccc12 [Indibulin, N-(pyridine-4-yl)-[1-(4-chlorobenzyl)-indole-3-yl]glyoxylic acid amide]
solubility in organic solvents ([1]; dimethylformamide, dimethylsulfoxide and N-methylpyrrolidone): sufficient solubility | solubility in highly concentrated organic acids ([1]; roughly >50% w/v acetic acid or lactic acid): relatively good solvents | solubility in hydrophilic solvents ([1]; water, methanol, ethanol or 2-propanol): practically insoluble | bioavailability [2]: very low | polymerization of microtubules (microtubules): inhibits polymerization of microtubules | polymerization of microtubules [3]: inhibits polymerization of microtubules | neurological symptoms [4]: No neurological symptoms | tolerability [5]: very well tolerated
